{"source": "the supplement of paper PMC10307832", "experiment_in_all_cases": "relative viability (nuclei count vs DMSO), 5 days (fraction); higher = more cells survive", "key": {"NCI-H596": {"test_system": "NCI-H596", "in_short": "(§1)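 Relative viability is defined as nuclei in treated wells over nuclei in vehicle wells. Duplicate plates were run and medians reported. Lung cancer cell lines in 1536-well plates were dosed by pin tool one day after seeding, with one drug or with a fixed anchor-drug dose plus five library-drug doses (not always all listed) in √10 steps, and nuclei were counted after 5 days.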"}, "HCC-827": {"test_system": "HCC-827", "in_short": "as §1"}, "NCI-H2405": {"test_system": "NCI-H2405", "in_short": "as §1"}, "LCLC-103H": {"test_system": "LCLC-103H", "in_short": "as §1"}, "LOU-NH91": {"test_system": "LOU-NH91", "in_short": "as §1"}, "COR-L 105": {"test_system": "COR-L 105", "in_short": "as §1"}, "NCI-H727": {"test_system": "NCI-H727", "in_short": "as §1"}, "PC-3 [JPC-3]": {"test_system": "PC-3 [JPC-3]", "in_short": "as §1"}, "201T": {"test_system": "201T", "in_short": "as §1"}, "NCI-H1975": {"test_system": "NCI-H1975", "in_short": "as §1"}, "HOP-62": {"test_system": "HOP-62", "in_short": "as §1"}, "HARA": {"test_system": "HARA", "in_short": "as §1"}}, "data": [{"smiles": "CCNC(=O)c1noc(-c2cc(C(C)C)c(O)cc2O)c1-c1ccc(CN2CCOCC2)cc1", "note": "[Luminespib] + COc1cc2c(Oc3ccc(NC(=O)C4(C(=O)Nc5ccc(F)cc5)CC4)cc3F)ccnc2cc1OCCCN1CCOCC1 [Foretinib] (partner 0.25 µM)", "values": [{"measurement": "relative viability", "setting": "NCI-H596; first compound 0.06325 µM", "result": 0.787}, {"measurement": "relative viability", "setting": "NCI-H596; first compound 0.2 µM", "result": 0.783}, {"measurement": "relative viability", "setting": "HCC-827; first compound 0.002 µM", "result": 1.06}, {"measurement": "relative viability", "setting": "HCC-827; first compound 0.006325 µM", "result": 0.971}, {"measurement": "relative viability", "setting": "HCC-827; first compound 0.02 µM", "result": 0.869}, {"measurement": "relative viability", "setting": "HCC-827; first compound 0.06325 µM", "result": 0.692}, {"measurement": "relative viability", "setting": "HCC-827; first compound 0.2 µM", "result": 0.152}, {"measurement": "relative viability", "setting": "NCI-H2405; first compound 0.002 µM", "result": 1.08}, {"measurement": "relative viability", "setting": "NCI-H2405; first compound 0.006325 µM", "result": 0.852}, {"measurement": "relative viability", "setting": "NCI-H2405; first compound 0.02 µM", "result": 1}, {"measurement": "relative viability", "setting": "NCI-H2405; first compound 0.06325 µM", "result": 0.227}, {"measurement": "relative viability", "setting": "NCI-H2405; first compound 0.2 µM", "result": 0.2}, {"measurement": "relative viability", "setting": "LCLC-103H; first compound 0.002 µM", "result": 0.826}, {"measurement": "relative viability", "setting": "LCLC-103H; first compound 0.006325 µM", "result": 0.778}, {"measurement": "relative viability", "setting": "LCLC-103H; first compound 0.02 µM", "result": 0.757}, {"measurement": "relative viability", "setting": "LCLC-103H; first compound 0.06325 µM", "result": 0.87}, {"measurement": "relative viability", "setting": "LCLC-103H; first compound 0.2 µM", "result": 0.362}, {"measurement": "relative viability", "setting": "LOU-NH91; first compound 0.002 µM", "result": 0.922}, {"measurement": "relative viability", "setting": "LOU-NH91; first compound 0.006325 µM", "result": 0.95}, {"measurement": "relative viability", "setting": "LOU-NH91; first compound 0.02 µM", "result": 0.577}, {"measurement": "relative viability", "setting": "LOU-NH91; first compound 0.06325 µM", "result": 0.378}, {"measurement": "relative viability", "setting": "LOU-NH91; first compound 0.2 µM", "result": 0.298}, {"measurement": "relative viability", "setting": "COR-L 105; first compound 0.002 µM", "result": 0.885}, {"measurement": "relative viability", "setting": "COR-L 105; first compound 0.006325 µM", "result": 1.04}, {"measurement": "relative viability", "setting": "COR-L 105; first compound 0.02 µM", "result": 1.07}, {"measurement": "relative viability", "setting": "COR-L 105; first compound 0.06325 µM", "result": 0.436}, {"measurement": "relative viability", "setting": "COR-L 105; first compound 0.2 µM", "result": 0.273}, {"measurement": "relative viability", "setting": "NCI-H727; first compound 0.002 µM", "result": 1.04}, {"measurement": "relative viability", "setting": "NCI-H727; first compound 0.006325 µM", "result": 0.834}, {"measurement": "relative viability", "setting": "NCI-H727; first compound 0.02 µM", "result": 0.669}, {"measurement": "relative viability", "setting": "NCI-H727; first compound 0.06325 µM", "result": 0.219}, {"measurement": "relative viability", "setting": "NCI-H727; first compound 0.2 µM", "result": 0.332}, {"measurement": "relative viability", "setting": "PC-3 [JPC-3]; first compound 0.002 µM", "result": 1.01}, {"measurement": "relative viability", "setting": "PC-3 [JPC-3]; first compound 0.006325 µM", "result": 0.938}, {"measurement": "relative viability", "setting": "PC-3 [JPC-3]; first compound 0.02 µM", "result": 1.18}, {"measurement": "relative viability", "setting": "PC-3 [JPC-3]; first compound 0.06325 µM", "result": 0.728}, {"measurement": "relative viability", "setting": "PC-3 [JPC-3]; first compound 0.2 µM", "result": 0.259}, {"measurement": "relative viability", "setting": "201T; first compound 0.002 µM", "result": 1.06}, {"measurement": "relative viability", "setting": "201T; first compound 0.006325 µM", "result": 1.07}, {"measurement": "relative viability", "setting": "201T; first compound 0.02 µM", "result": 1.08}, {"measurement": "relative viability", "setting": "201T; first compound 0.06325 µM", "result": 0.173}, {"measurement": "relative viability", "setting": "201T; first compound 0.2 µM", "result": 0.159}, {"measurement": "relative viability", "setting": "NCI-H1975; first compound 0.002 µM", "result": 1.07}, {"measurement": "relative viability", "setting": "NCI-H1975; first compound 0.006325 µM", "result": 0.97}, {"measurement": "relative viability", "setting": "NCI-H1975; first compound 0.02 µM", "result": 0.615}, {"measurement": "relative viability", "setting": "NCI-H1975; first compound 0.06325 µM", "result": 0.0994}, {"measurement": "relative viability", "setting": "NCI-H1975; first compound 0.2 µM", "result": 0.108}, {"measurement": "relative viability", "setting": "HOP-62; first compound 0.002 µM", "result": 1.09}, {"measurement": "relative viability", "setting": "HOP-62; first compound 0.006325 µM", "result": 1.11}, {"measurement": "relative viability", "setting": "HOP-62; first compound 0.02 µM", "result": 1.17}, {"measurement": "relative viability", "setting": "HOP-62; first compound 0.06325 µM", "result": 0.587}, {"measurement": "relative viability", "setting": "HOP-62; first compound 0.2 µM", "result": 0.145}, {"measurement": "relative viability", "setting": "HARA; first compound 0.002 µM", "result": 1.09}, {"measurement": "relative viability", "setting": "HARA; first compound 0.006325 µM", "result": 0.728}, {"measurement": "relative viability", "setting": "HARA; first compound 0.02 µM", "result": 1.08}, {"measurement": "relative viability", "setting": "HARA; first compound 0.06325 µM", "result": 0.922}, {"measurement": "relative viability", "setting": "HARA; first compound 0.2 µM", "result": 0.785}]}]}
